Data from patent US11571403B2, “Methods for the treatment of non-alcoholic steatohepatitis” (Eiger Biopharmaceuticals, Inc., priority 2016, dated 2023).

What was measured:
Type in all cases: in vivo, mouse
[1] = test system: STAM model of NASH fibrosis; test: NAFLD Activity Score by HE staining, STAM model of NASH with fibrosis (Example 3); conditions: for Steatosis score 0, number of mice: score 0 = <5%; for Hepatocyte ballooning score 0, number of mice: score 0 = None; for Steatosis score 1, number of mice: score 1 = 5-33%; for Hepatocyte ballooning score 1, number of mice: score 1 = Few balloon cells; for Lobular inflammation score 2, number of mice: score 2 = 2-4 foci/200x; for Steatosis score 2, number of mice: score 2 = >33-66%; for Hepatocyte ballooning score 2, number of mice: score 2 = Many cells/prominent ballooning; for Lobular inflammation score 3, number of mice: score 3 = >4 foci/200x
Experimental: (§1) Ubenimex or telmisartan was administered orally in a volume at 10 mL/kg. Ubenimex was administered at a dose of 5 mg/kg once daily or twice daily. Telmisartan was administered at a dose of 5 mg/kg once daily.
For HE staining, sections were cut from paraffin blocks of liver tissue prefixed in Bouin's solution and stained with Lillie-Mayer's hematoxylin (Muto Pure Chemicals Co., Ltd., Japan) and eosin solution (Wako Pure Chemical Industries, Ltd., Japan). NAFLD Activity Score (NAS) was calculated according to the criteria of Kleiner (Kleiner et al., Hepatology, 2005, 41:1313). To visualize collagen deposition, Bouin's fixed liver sections were stained using picro-Sirius red solution (Waldeck, Germany). For quantitative analysis of fibrosis area, bright field images of Sirius red-staining sections were captured around the central vein using a digital camera (DFC295; Leica, Germany) at 200-fold magnification, and the positive areas in 5 fields/section were measured using ImageJ software (National Institutes of Health, USA).
Statistical tests: Statistical analyses were performed using Bonferroni Multiple Comparison Test on GraphPad Prism 6 (GraphPad Software Inc., USA). P values <0.05 were considered statistically significant. A trend or tendency was assumed when a one-tailed t-test returned P values <0.1. Results were expressed as mean±SD.
(§2) Study groups: The following study groups were used. Group 1 (Vehicle): 8 NASH mice were orally administered vehicle (RO water) in a volume of 10 mL/kg twice daily from 6 to 11 weeks of age. Group 2 (Ubenimex QD for 5 weeks): 8 NASH mice were orally administered vehicle supplemented with ubenimex at a dose of 5 mg/kg once daily from 6 to 11 weeks of age. Group 3 (Ubenimex BID for 5 weeks): 8 NASH mice were orally administered vehicle supplemented with ubenimex at a dose of 5 mg/kg twice daily from 6 to 11 weeks of age. Group 4 (Ubenimex BID for 2 weeks): 8 NASH mice were orally administered vehicle supplemented with ubenimex at a dose of 5 mg/kg twice daily from 9 to 11 weeks of age. Group 5 (Telmisartan for 5 weeks): 8 NASH mice were orally administered pure water supplemented with telmisartan at a dose of 5 mg/kg once daily from 6 to 11 weeks of age.

[2] = test system: STAM model of NASH fibrosis; test: Biochemistry: plasma ALT and liver triglyceride, STAM model of NASH with fibrosis (Example 3)
Experimental: as §1
For plasma biochemistry, blood was collected in polypropylene tubes with anticoagulant (Novo-Heparin, Mochida Pharmaceutical Co. Ltd., Japan) and centrifuged at 1,000×g for 15 minutes at 4° C. The supernatant was collected and stored at −80° C. until use. Plasma ALT level was measured by FUJI DRI-CHEM 7000 (Fujifilm, Japan).
Liver total lipid-extracts were obtained by Folch's method (Folch et al., J. Biol Chem, 1957, 226:497). Liver samples were homogenized in chloroform-methanol (2:1 v/v) and incubated overnight at room temperature. After washing with chloroform-methanol-water (8:4:3 v/v/v), the extracts were evaporated to dryness and dissolved in isopropanol. Liver triglyceride content was measured by Triglyceride E-test (Wako Pure Chemical Industries, Ltd., Japan).
as §2

[3] = test system: STAM model of NASH fibrosis; test: Fibrosis area by Sirius red staining, STAM model of NASH with fibrosis (Example 3)
Experimental: Ubenimex or telmisartan was administered orally in a volume at 10 mL/kg. Ubenimex was administered at a dose of 5 mg/kg once daily or twice daily. Telmisartan was administered at a dose of 5 mg/kg once daily. For HE staining, sections were cut from paraffin blocks of liver tissue prefixed in Bouin's solution and stained with Lillie-Mayer's hematoxylin (Muto Pure Chemicals Co., Ltd., Japan) and eosin solution (Wako Pure Chemical Industries, Ltd., Japan). NAFLD Activity Score (NAS) was calculated according to the criteria of Kleiner (Kleiner et al., Hepatology, 2005, 41:1313). To visualize collagen deposition, Bouin's fixed liver sections were stained using picro-Sirius red solution (Waldeck, Germany). For quantitative analysis of fibrosis area, bright field images of Sirius red-staining sections were captured around the central vein using a digital camera (DFC295; Leica, Germany) at 200-fold magnification, and the positive areas in 5 fields/section were measured using ImageJ software (National Institutes of Health, USA). Study groups: The following study groups were used. Group 1 (Vehicle): 8 NASH mice were orally administered vehicle (RO water) in a volume of 10 mL/kg twice daily from 6 to 11 weeks of age. Group 2 (Ubenimex QD for 5 weeks): 8 NASH mice were orally administered vehicle supplemented with ubenimex at a dose of 5 mg/kg once daily from 6 to 11 weeks of age. Group 3 (Ubenimex BID for 5 weeks): 8 NASH mice were orally administered vehicle supplemented with ubenimex at a dose of 5 mg/kg twice daily from 6 to 11 weeks of age. Group 4 (Ubenimex BID for 2 weeks): 8 NASH mice were orally administered vehicle supplemented with ubenimex at a dose of 5 mg/kg twice daily from 9 to 11 weeks of age. Group 5 (Telmisartan for 5 weeks): 8 NASH mice were orally administered pure water supplemented with telmisartan at a dose of 5 mg/kg once daily from 6 to 11 weeks of age.

[4] = ubenimex 5 mg/kg BID oral, 6 to 11 weeks of age
[5] = ubenimex 5 mg/kg BID oral, 9 to 11 weeks of age
[6] = ubenimex 5 mg/kg QD oral, 6 to 11 weeks of age
[7] = telmisartan 5 mg/kg QD oral, 6 to 11 weeks of age

Structure (SMILES): CC(C)C[C@H](NC(=O)[C@@H](O)[C@H](N)Cc1ccccc1)C(=O)O [Ubenimex, (2S)-2-[[(2S,3R)-3-amino-2-hydroxy-4-phenylbutanoyl]amino]-4-methylpentanoic acid]
- Steatosis score 0, number of mice [1, 4]: 1
- Steatosis score 0, number of mice [1, 5]: 1
- Hepatocyte ballooning score 0, number of mice [1, 4]: 5
- Hepatocyte ballooning score 0, number of mice [1, 5]: 4
- Hepatocyte ballooning score 0, number of mice [1, 6]: 2
- Steatosis score 1, number of mice [1, 4]: 4
- Steatosis score 1, number of mice [1, 5]: 4
- Steatosis score 1, number of mice [1, 6]: 6
- Lobular inflammation score 1, number of mice ([1]; score 1 = <2 foci/200x, ubenimex 5 mg/kg QD oral, 6 to 11 weeks of age): 1
- Hepatocyte ballooning score 1, number of mice [1, 5]: 1
- Hepatocyte ballooning score 1, number of mice [1, 6]: 4
- Lobular inflammation score 2, number of mice [1, 4]: 2
- Lobular inflammation score 2, number of mice [1, 5]: 4
- Lobular inflammation score 2, number of mice [1, 6]: 3
- Steatosis score 2, number of mice [1, 4]: 1
- Steatosis score 2, number of mice [1, 5]: 1
- Hepatocyte ballooning score 2, number of mice [1, 4]: 1
- Hepatocyte ballooning score 2, number of mice [1, 5]: 1
- Lobular inflammation score 3, number of mice [1, 4]: 4
- Lobular inflammation score 3, number of mice [1, 5]: 2
- Lobular inflammation score 3, number of mice [1, 6]: 2
- NAS (mean ± SD) [1, 4]: 4.0 ± 1.7
- NAS (mean ± SD) [1, 5]: 3.8 ± 1.0
- NAS (mean ± SD) [1, 6]: 3.8 ± 0.8
- Liver triglyceride (mean ± SD) [2, 4]: 59.6 ± 21.4 mg/g liver
- Plasma ALT (mean ± SD) [2, 4]: 52 ± 21 U/L
- Liver triglyceride (mean ± SD) [2, 5]: 62.0 ± 33.5 mg/g liver
- Plasma ALT (mean ± SD) [2, 5]: 47 ± 24 U/L
- Liver triglyceride (mean ± SD) [2, 6]: 58.6 ± 24.4 mg/g liver
- Plasma ALT (mean ± SD) [2, 6]: 85 ± 64 U/L
- Sirius red-positive area (fibrosis area, mean ± SD) [3, 4]: 0.88 ± 0.22%
- Sirius red-positive area (fibrosis area, mean ± SD) [3, 5]: 0.87 ± 0.14%
- Sirius red-positive area (fibrosis area, mean ± SD) [3, 6]: 0.75 ± 0.16%

Structure (SMILES): CCCc1nc2c(C)cc(-c3nc4ccccc4n3C)cc2n1Cc1ccc(-c2ccccc2C(=O)O)cc1 [Telmisartan, telmisartan]
- Steatosis score 0, number of mice [1, 7]: 1
- Lobular inflammation score 0, number of mice ([1]; score 0 = No foci, telmisartan 5 mg/kg QD oral, 6 to 11 weeks of age): 1
- Hepatocyte ballooning score 0, number of mice [1, 7]: 3
- Steatosis score 1, number of mice [1, 7]: 5
- Hepatocyte ballooning score 1, number of mice [1, 7]: 3
- Lobular inflammation score 2, number of mice [1, 7]: 3
- Lobular inflammation score 3, number of mice [1, 7]: 2
- NAS (mean ± SD) [1, 7]: 3.3 ± 1.0
- Liver triglyceride (mean ± SD) [2, 7]: 24.6 ± 8.4 mg/g liver
- Plasma ALT (mean ± SD) [2, 7]: 36 ± 11 U/L
- Sirius red-positive area (fibrosis area, mean ± SD) [3, 7]: 0.57 ± 0.14%
